Legend:
[1] = test system: SARS-CoV-2; assay type: cell-based
[2] = test system: Vero E6 cells; conditions: parallel plates

Row | Compound | effect on SARS-CoV-2 viral RNA in supernatants / replication (in words) [1] | compound cytotoxicity (in words) [2] | potency at 48 hpi compared with 24 hpi (in words) [1] | IC50 ([1]; read-out: IC50, SARS-CoV-2 viral RNA in supernatants) [µM]
1 | Cc1ccnc2c1NC(=O)c1cccnc1N2C1CC1 [nevirapine] | modestly inhibited | without apparent cytotoxicity |  | 
2 | Cc1nc2ccc(Br)cc2c(-c2ccc(Cl)cc2)c1C(OC(C)(C)C)C(=O)O (centres unmarked) [ALLINI-2] | modestly inhibited | without apparent cytotoxicity |  | 
3 | CCC(CC)COC(=O)[C@H](C)N[P@](=O)(OC[C@H]1O[C@@](C#N)(c2ccc3c(N)ncnn23)[C@H](O)[C@@H]1O)Oc1ccccc1 [remdesivir] | substantially decreased |  |  | 
4 | Cc1cccc(/C=N/Nc2cc(N3CCOCC3)nc(OCCc3ccccn3)n2)c1 [apilimod] | substantially decreased | minimal cytotoxicity | less potent | 
5 | CCOC(=O)[C@H]1O[C@@H]1C(=O)N[C@@H](CC(C)C)C(=O)NCCC(C)C [E64D] | substantially decreased | minimal cytotoxicity | less potent | 3.3
6 | CC(C)CN(C[C@@H](O)[C@H](Cc1ccccc1)NC(=O)O[C@H]1CCOC1)S(=O)(=O)c1ccc(N)cc1 [amprenavir] | modestly inhibited | without apparent cytotoxicity |  | 

Reference: publication PMC7325174 (bioRxiv, 2020)
